# What was measured:
# HN cells (αvβ6+) = test: Time-dependent cellular uptake of Cy5.5-labeled ligands, HN cells; type: cell-based; details: Cy5.5-labeled ligands, 1 μM
# Source text: For intracellular drug delivery, integrin ligands designed as drug-conjugated vehicles have to be easily and selectively internalized by tumor cells (over)expressing the respective targeted integrin subtype. […] It should be noted here that HN, OV-MZ-6, and RKO cells also express low αvβ3 expression levels.
# Figure 7 Cellular uptake of Cy5.5-labeled integrin ligands. […] Nuclei were costained with Hoechst 33342 (blue signal) and cell membranes with CellMask Green (green signal). Merge of stains (yellow signal) indicated colocalization of ligands at the cell membrane. Scale bar: 50 μm.
# Microchamber cell culture slides were coated with fibronectin (2 μg/mL), followed by cell seeding at a density of 50,000 cells/well. After 24 h of cultivation, cells were treated with integrin ligands L1-Cy5.5 to L5-Cy5.5 (1 μM in 0.01% (w/v) CaCl2 and 0.1% (w/v) BSA in PBS; 250 μL/well) for 3, 30, 60, or 300 min at 37 °C. The cells were washed in PBS/0.01% (w/v) CaCl2 (6 × 800 μL) and the fluorescence signal intensity recorded using the LSM 700 microscope (Zeiss, Jena, Germany). CellMask Green Plasma Membrane Stain was used to stain the cell membrane; nuclei were stained with Hoechst 33342.
# [1] = system: FAK, p-FAK, p44/42erk-1/2 in αvβ6+ HN cells; test: Western blot of FAK and p44/42erk-1/2 expression and activation, HN cells; type: cell-based
# Method: Since agonistic ligand performance requires integrin activation and signaling, by Western blot analysis, we studied whether the different ligands alter the expression levels and activation states of FAK and p44/42^(erk-1/2). For this, the respective target integrin-expressing tumor cell types were incubated with the corresponding subtype-selective ligand at a concentration of 1 μM for 24 h (Figure 8). […] Signal intensities of FAK and p44/42^(erk-1/2) expression and activation (p-FAK and p-p44/42^(erk-1/2)) on Western blots were evaluated by densitometry. Data are depicted as GAPDH-normalized fluorescence signal intensities as n-fold, by setting values obtained for the respective untreated cells to “1”. […] MAPK p44/42^(erk-1/2) expression was approximately 2.2-fold augmented, p44/42^(erk-1/2) by approximately 2.5-fold. It also raised activation of p-FAK and p-p44/42^(erk-1/2) by approximately 2.2-fold and 3.1-fold, respectively, in α5β1+ OV-MZ-6 cells. […] Additionally, it raised FAK (approximately 1.7-fold) and p-p44/42^(erk-1/2) (approximately 2.4-fold) in α5β1+ OV-MZ-6 cells.
# Figure 8 Effects of ligands on cellular expression and activation of integrin-related signaling molecules FAK and p44/42^(erk-1/2). […] Signal intensities for FAK and p-FAK, respectively, were evaluated by use of the Bio-Rad Imager Gel Doc XR+ and a ChemiDoc XRS+ Systems and the software Image Lab. Shown are typical representative Western blot images and the corresponding histograms depicting GAPDH-normalized signal intensities as n-fold by setting the values obtained for untreated cells to “1” (drawn as black line). For each cell line, cutouts of identical gels are depicted.
# In order to capture early and transient changes in signaling activation following ligand treatment, we next reduced the observation periods to 5, 30, or 60 min and assessed FAK expression and activation. […] Depicted are typical Western blot images and the corresponding densitometrical evaluations of GAPDH-normalized signal intensities as n-fold, by setting that of the respective untreated cell type to “1” (Figure 9). […]
# HN cells = test: Cell adhesion in the presence of ligand, HN cells; type: cell-based; details: both concentrations (1 nM, 1 μM), 48 h
# Method: (§1) Figure 10 (A) Effect of integrin ligands on cancer cell migration. […] Microscopical measurements of wound gaps were taken directly after setting the wound scratch and then after 9, 24, 48, and 72 h, respectively. Wound scratch assays were repeated at least three times. The extent of wound gap closure [%]/cell coverage was calculated by a python script utilizing Canny’s Edge Detection algorithm as described under Materials and summarized in the corresponding histograms (see also Scheme S5 in the Supporting Information). (B) Adhesion of M21, OV-MZ-6, and HN cells in the presence of the respective integrin targeting ligand at low (1 nM) and high (1 μM) concentrations. […] Depicted are typical microscopical images of the respective cell monolayers.
# human αvβ3-integrin = molecular target: T1, human αvβ3-integrin (Homo sapiens, UniProt P05106+P06756); details: previously published values; cited from earlier work
# T1 construct: purchased R&D 3050-AV-050
# OV-MZ-6 cells = test: Cell adhesion in the presence of ligand, OV-MZ-6 cells; type: cell-based; details: 1 μM, 48 h
# Method: as §1
# M21 cells = test: Cell adhesion in the presence of ligand, M21 cells; type: cell-based; details: 1 μM
# Method: as §1
# T1 sequence (P06756 31-992 limits assumed): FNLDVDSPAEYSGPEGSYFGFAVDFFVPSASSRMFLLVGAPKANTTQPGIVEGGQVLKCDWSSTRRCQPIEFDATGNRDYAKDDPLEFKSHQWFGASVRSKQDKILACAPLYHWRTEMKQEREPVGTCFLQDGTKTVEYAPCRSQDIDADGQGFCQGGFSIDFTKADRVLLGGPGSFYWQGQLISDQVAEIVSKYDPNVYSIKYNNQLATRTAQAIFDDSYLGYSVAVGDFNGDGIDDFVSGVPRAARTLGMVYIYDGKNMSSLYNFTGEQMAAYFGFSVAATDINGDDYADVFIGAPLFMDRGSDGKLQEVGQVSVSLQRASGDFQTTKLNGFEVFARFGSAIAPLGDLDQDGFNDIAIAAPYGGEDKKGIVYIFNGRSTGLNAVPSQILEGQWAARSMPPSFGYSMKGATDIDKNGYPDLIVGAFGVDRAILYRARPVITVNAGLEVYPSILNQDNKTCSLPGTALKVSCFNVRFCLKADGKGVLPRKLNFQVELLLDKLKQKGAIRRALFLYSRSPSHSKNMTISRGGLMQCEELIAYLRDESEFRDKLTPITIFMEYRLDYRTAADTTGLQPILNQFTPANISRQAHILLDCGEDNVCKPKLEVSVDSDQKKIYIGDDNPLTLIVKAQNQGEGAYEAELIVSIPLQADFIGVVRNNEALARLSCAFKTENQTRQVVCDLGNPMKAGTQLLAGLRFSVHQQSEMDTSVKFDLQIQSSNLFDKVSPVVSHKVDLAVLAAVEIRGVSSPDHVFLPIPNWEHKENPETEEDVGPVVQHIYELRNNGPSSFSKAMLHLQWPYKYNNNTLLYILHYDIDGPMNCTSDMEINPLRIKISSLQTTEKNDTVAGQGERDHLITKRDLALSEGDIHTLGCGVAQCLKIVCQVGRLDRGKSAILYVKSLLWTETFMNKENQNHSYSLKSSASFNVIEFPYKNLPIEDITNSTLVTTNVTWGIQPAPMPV
# T1 sequence (P05106 27-718 limits assumed): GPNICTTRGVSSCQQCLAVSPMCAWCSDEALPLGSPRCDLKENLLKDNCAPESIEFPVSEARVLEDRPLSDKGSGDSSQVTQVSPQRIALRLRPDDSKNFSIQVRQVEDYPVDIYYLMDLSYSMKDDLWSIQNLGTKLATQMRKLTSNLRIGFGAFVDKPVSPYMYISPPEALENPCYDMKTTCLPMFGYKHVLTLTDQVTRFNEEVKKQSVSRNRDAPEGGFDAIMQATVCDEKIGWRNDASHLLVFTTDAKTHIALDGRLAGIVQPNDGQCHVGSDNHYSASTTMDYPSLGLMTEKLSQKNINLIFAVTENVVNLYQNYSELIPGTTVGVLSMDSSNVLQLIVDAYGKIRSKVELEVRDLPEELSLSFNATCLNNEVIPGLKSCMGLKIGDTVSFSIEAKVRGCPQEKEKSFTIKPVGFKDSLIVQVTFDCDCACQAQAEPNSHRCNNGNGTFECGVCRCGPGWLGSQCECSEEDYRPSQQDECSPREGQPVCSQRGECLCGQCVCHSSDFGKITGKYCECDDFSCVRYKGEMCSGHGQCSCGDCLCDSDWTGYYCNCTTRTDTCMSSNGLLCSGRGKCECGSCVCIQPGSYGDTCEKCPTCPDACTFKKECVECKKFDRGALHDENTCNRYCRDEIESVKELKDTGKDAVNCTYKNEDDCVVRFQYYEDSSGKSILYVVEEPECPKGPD
compound,measurement,setting,value
c(FRGDLAFp(NMe)K) [L3],"Cellular uptake, comparison of αvβ6 ligands",HN cells (αvβ6+),better cellular uptake than L4
same,"Modulation of signaling molecules (FAK, p44/42erk-1/2)","[1]; 1 μM, 24 h, in either cell type",not effective in modulating signaling molecules
same,"p-FAK, elevated levels within 30 min","[1]; HN cells, 1 nM",approximately five
same,FAK expression versus untreated cells,"[1]; HN cells, both concentrations (1 nM, 1 μM), within 60 min",slight increase
same,Adhesive phenotype,HN cells,not changed
same,IC50,human αvβ3-integrin,> 1000 nM
"C#CCCC(=O)NCCCOc1cc(C)c(C(=O)N[C@@H](CNC(=O)CNC(=O)c2cccc(NC(=N)N)c2)C(=O)O)c(C)c1 [L5, (S)-2-(2,6-Dimethyl-4-(3-(pent-4-ynamido)propoxy)benzamido)-3-(2-(3-guanidinobenzamido)acetamido)propanoic Acid]",Effect on cell adhesion / attachment,OV-MZ-6 cells,performed as inhibitors of cell attachment
"C#CCCC(=O)NCCCOc1ccc(C(=O)N[C@H](CC(=O)O)Cc2ccc(OCCCNc3cc(OC)ccn3)cc2)cc1 [L1, (S)-4-(4-(3-((4-Methoxypyridin-2-yl)amino)propoxy)phenyl)-3-(4-(3-(pent-4-ynamido)propoxy)benzamido)butanoic Acid]",Effect on cell adhesion / attachment,M21 cells,performed as inhibitors of cell attachment

# Source: paper PMC11874007, “Switching Roles—Exploring Concentration-Dependent Agonistic versus Antagonistic Behavior of Integrin Ligands” (Journal of Medicinal Chemistry, 2025)
